From ChEMBL document CHEMBL1201862, “PubChem BioAssay data set” (2004)
The source made the active and inactive calls.

How the values were obtained:
[1] = target: Eukaryotic translation initiation factor 4E (Mus musculus, UniProt P63073); test: eIF4E–eIF4G protein interaction inhibitors, dose response, biochemical, TR-FRET (AID 855); format: functional;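 note: potency for disrupting eIF4E binding to eIF4GI seen as loss of FRET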
[2] = target: T1, Small ubiquitin-related modifier 1 (Homo sapiens, UniProt P63165); test: inhibitors of SUMO1 peptide binding, dose response, biochemical, fluorescence polarization, uHTS hits (AID 624382); format: functional; details: read-out: IC50_Mean
[3] = target: Induced myeloid leukemia cell differentiation protein Mcl-1 (Homo sapiens, UniProt Q07820); format: functional
[4] = target: T2, Histone-lysine N-methyltransferase NSD2 (Homo sapiens, UniProt O96028); format: biochemical
T2 sequence (O96028 whole entry): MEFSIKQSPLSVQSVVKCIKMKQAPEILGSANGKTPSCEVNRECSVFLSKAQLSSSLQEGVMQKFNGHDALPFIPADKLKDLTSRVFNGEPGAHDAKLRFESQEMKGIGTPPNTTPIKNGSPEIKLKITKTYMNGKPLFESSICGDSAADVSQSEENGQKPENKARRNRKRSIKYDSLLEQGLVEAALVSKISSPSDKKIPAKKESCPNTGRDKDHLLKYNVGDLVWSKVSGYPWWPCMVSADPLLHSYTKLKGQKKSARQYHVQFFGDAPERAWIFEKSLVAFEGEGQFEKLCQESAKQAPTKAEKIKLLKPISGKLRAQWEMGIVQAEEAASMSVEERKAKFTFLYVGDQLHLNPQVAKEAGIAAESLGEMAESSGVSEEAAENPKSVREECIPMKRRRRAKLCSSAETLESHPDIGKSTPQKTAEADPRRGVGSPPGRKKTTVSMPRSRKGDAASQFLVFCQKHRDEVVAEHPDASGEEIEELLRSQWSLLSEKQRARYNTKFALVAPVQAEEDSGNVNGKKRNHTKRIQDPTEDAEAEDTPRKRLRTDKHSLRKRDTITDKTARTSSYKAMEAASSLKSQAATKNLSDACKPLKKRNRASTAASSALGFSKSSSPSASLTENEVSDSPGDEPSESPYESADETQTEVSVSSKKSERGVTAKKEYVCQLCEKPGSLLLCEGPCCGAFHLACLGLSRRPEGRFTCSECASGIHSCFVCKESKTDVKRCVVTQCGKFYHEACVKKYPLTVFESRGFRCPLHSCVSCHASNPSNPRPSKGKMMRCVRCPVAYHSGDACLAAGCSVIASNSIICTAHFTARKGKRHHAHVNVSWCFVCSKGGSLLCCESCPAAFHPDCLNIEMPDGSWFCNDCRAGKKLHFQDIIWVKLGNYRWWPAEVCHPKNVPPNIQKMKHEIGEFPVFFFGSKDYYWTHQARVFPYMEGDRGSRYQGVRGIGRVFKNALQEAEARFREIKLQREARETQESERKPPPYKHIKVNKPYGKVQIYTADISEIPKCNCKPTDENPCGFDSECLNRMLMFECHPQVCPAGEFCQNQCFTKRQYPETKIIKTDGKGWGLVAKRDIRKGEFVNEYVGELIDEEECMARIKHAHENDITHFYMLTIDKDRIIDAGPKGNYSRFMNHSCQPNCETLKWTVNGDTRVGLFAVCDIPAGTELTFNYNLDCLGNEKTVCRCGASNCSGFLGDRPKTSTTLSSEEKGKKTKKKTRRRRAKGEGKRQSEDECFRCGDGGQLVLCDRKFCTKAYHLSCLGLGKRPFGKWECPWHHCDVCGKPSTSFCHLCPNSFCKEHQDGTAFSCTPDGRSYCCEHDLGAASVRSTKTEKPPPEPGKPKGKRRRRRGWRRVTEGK

[5] = target: T3, Alkaline phosphatase, tissue-nonspecific isozyme (Homo sapiens, UniProt P05186); test: TNAP enzyme inhibition by screening hits, dose response, selectivity assay for mouse IAP inhibitor project, biochemical, human TNAP, uHTS hits (AID 488906); format: functional
T3 sequence (P05186 whole entry): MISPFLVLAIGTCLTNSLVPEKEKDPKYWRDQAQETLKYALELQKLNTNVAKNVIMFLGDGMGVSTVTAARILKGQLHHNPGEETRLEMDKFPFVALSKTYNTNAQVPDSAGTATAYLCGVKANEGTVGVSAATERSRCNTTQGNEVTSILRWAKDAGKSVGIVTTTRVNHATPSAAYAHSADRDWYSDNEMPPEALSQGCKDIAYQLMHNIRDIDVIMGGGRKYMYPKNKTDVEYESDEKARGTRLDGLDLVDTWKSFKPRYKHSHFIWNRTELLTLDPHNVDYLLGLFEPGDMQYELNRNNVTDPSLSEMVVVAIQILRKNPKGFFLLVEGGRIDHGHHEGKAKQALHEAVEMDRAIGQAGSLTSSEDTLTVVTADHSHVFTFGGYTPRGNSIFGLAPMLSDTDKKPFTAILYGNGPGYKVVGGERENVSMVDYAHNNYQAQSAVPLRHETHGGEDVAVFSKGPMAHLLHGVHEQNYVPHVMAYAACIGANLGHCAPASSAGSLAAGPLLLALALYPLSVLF

[6] = target: Large T antigen (Simian virus 40, UniProt P03070); format: functional, Betapolyomavirus macacae;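 note: Confirmatory-stage PubChem screen for compounds that inhibit SV40 T antigen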
[7] = target: Intestinal-type alkaline phosphatase (Mus musculus, UniProt P24822); test: PubChem AID 488785; format: functional
[8] = test system: HeLa; test: HeLa cell cytotoxicity, dose response, cytotoxicity control, 24 h, cherry-picked samples (AID 504726); format: functional, cell-based; details: Homo sapiens;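 note: potency for cytotoxicity as loss of luminescence signal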
[9] = target: T4, DNA dC->dU-editing enzyme APOBEC-3G (Homo sapiens, UniProt Q9HC16); test: SAR analysis of small molecule inhibitors of APOBEC3G DNA Deaminase via a fluorescence-based single-stranded DNA deaminase assay - Set 2.; format: functional; details: read-out: IC50_Mean
[10] = target: ORF 73 (Human herpesvirus 8, UniProt O40947); test: inhibitors of C-LANA binding to LBS DNA, dose response, biochemical, fluorescence polarization, cherry-picked samples (AID 504725); parameters: species or system Human gammaherpesvirus 8;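 note: fluorescence polarization of a labeled DNA duplex reporting LANA DNA binding; potency is for inhibitors that block LANA binding to the DNA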
[11] = target: T5, Small ubiquitin-related modifier 2 (Homo sapiens, UniProt P61956); test: inhibitors of SUMO2 protein-protein interaction, dose response, selectivity assay for SUMO1 interaction inhibitor project, biochemical, FRET, human SUMO2, uHTS hits (AID 624384); format: functional; details: read-out: IC50_Mean
[12] = target: T5, Small ubiquitin-related modifier 2; test: SUMO2–SIM peptide binding inhibitors, dose response, selectivity assay for SUMO1 interaction inhibitor project, biochemical, fluorescence polarization, uHTS hits (AID 624385); format: functional; details: read-out: IC50_Mean
[13] = target: T4, DNA dC->dU-editing enzyme APOBEC-3G; test: APOBEC3G deaminase inhibitors, SAR follow-up, biochemical, fluorescence, single-stranded DNA substrate (AID 602136); format: functional; details: read-out: IC50_Mean
[14] = target: Intestinal-type alkaline phosphatase (Homo sapiens, UniProt P09923); test: activation of human intestinal alkaline phosphatase – biochemical, dose response (AID 488873); format: functional
[15] = target: T6, DNA dC->dU-editing enzyme APOBEC-3A (Homo sapiens, UniProt P31941); test: SAR analysis of small molecule inhibitors of APOBEC3A DNA Deaminase via a fluorescence-based single-stranded DNA deaminase assay - Set 2.; format: functional; details: read-out: IC50_Mean
[16] = target: T6, DNA dC->dU-editing enzyme APOBEC-3A; test: SAR analysis of small molecule inhibitors of APOBEC3A DNA Deaminase via a fluorescence-based single-stranded DNA deaminase assay.; format: functional; details: read-out: IC50_Mean
[17] = target: T1, Small ubiquitin-related modifier 1; test: inhibitors of SUMO1 partner interactions, dose response, biochemical, FRET (AID 624383); format: functional; details: read-out: IC50_Mean

T4 sequence (Q9HC16 whole entry): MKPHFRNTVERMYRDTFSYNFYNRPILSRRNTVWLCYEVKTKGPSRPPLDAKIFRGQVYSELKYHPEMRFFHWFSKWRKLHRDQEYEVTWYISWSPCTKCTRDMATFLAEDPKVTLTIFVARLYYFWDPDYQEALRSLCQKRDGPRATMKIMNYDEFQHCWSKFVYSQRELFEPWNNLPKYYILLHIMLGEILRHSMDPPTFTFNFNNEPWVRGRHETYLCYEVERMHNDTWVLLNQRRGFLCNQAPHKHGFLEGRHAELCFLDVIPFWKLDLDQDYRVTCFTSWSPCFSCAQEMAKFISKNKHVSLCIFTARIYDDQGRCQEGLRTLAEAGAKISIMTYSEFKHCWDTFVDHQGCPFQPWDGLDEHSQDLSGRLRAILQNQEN
T6 sequence (P31941 whole entry): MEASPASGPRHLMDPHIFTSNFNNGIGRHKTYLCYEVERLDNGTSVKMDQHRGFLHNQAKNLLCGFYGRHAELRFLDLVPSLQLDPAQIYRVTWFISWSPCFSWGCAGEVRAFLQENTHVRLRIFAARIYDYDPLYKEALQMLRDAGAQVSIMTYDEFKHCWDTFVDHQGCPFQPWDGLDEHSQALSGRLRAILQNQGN
T5 sequence (P61956 whole entry): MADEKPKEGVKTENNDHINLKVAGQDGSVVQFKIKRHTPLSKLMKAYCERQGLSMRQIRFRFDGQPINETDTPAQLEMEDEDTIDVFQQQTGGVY
T1 sequence (P63165 whole entry): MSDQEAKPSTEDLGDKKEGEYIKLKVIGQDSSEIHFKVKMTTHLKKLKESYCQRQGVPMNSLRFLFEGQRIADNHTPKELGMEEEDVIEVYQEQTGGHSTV
Sequence of Induced myeloid leukemia cell differentiation protein Mcl-1 (Q07820 whole entry): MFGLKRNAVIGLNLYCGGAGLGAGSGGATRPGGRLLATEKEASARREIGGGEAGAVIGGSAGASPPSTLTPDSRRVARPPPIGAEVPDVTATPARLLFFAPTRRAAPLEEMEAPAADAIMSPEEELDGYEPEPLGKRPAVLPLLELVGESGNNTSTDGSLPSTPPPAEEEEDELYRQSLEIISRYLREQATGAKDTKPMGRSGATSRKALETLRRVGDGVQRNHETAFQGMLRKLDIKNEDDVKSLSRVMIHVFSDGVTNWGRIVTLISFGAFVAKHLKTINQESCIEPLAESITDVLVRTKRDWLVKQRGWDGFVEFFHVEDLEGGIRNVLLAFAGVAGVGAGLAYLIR
Sequence of Intestinal-type alkaline phosphatase (Mus musculus, UniProt P24822) (P24822 whole entry): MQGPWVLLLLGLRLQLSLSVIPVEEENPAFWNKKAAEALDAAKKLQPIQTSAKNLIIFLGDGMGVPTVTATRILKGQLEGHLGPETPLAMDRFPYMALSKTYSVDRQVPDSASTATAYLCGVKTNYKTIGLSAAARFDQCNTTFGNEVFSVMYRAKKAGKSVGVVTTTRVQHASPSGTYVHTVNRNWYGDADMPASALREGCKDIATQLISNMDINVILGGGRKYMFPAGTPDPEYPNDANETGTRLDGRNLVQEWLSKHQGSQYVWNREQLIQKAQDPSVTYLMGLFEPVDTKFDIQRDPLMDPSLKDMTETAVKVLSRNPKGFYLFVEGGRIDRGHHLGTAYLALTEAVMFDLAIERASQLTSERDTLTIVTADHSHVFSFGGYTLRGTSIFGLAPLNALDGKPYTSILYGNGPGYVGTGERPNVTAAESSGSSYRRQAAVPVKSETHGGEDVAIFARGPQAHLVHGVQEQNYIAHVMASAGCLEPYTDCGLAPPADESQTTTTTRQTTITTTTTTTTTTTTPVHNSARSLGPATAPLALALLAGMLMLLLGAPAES
Sequence of Intestinal-type alkaline phosphatase (Homo sapiens, UniProt P09923) (P09923 whole entry): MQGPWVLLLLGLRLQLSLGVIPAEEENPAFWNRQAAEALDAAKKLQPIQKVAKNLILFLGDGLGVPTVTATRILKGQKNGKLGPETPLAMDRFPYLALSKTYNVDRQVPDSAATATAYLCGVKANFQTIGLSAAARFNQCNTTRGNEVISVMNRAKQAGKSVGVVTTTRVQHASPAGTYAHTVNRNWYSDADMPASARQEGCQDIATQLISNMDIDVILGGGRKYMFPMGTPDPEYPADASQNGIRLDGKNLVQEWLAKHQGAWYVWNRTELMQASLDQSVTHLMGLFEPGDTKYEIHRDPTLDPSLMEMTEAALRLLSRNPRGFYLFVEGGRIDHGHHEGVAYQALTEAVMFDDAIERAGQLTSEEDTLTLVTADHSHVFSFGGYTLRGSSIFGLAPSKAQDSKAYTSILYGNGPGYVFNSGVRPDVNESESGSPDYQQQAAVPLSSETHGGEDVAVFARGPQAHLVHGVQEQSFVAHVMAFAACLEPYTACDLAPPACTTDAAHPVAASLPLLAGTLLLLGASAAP
Sequence of Eukaryotic translation initiation factor 4E (P63073 whole entry): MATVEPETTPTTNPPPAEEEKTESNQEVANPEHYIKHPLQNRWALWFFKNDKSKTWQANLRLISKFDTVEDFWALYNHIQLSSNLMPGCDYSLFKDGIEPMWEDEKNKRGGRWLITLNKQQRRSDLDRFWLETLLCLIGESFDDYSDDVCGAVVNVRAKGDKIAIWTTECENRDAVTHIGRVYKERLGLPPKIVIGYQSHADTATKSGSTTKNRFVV
Sequence of Large T antigen (P03070 whole entry): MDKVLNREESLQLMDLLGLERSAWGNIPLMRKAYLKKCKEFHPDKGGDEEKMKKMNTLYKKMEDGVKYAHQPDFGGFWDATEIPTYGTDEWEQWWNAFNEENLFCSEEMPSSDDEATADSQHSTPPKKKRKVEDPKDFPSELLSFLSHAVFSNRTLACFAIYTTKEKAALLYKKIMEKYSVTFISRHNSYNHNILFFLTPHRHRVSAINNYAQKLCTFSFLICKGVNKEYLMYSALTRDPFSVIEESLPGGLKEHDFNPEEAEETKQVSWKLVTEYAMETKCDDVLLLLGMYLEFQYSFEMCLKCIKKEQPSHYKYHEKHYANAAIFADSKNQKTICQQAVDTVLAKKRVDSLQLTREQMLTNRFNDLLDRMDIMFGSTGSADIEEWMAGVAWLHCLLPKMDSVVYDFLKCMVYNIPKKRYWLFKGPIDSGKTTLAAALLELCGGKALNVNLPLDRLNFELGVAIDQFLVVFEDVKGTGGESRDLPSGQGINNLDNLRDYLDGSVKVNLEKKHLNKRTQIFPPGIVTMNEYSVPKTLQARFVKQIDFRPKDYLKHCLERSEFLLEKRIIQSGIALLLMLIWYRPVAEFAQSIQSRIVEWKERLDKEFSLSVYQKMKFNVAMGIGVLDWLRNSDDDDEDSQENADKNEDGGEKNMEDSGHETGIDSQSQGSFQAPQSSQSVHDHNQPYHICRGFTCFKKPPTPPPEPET
Sequence of ORF 73 (O40947 whole entry): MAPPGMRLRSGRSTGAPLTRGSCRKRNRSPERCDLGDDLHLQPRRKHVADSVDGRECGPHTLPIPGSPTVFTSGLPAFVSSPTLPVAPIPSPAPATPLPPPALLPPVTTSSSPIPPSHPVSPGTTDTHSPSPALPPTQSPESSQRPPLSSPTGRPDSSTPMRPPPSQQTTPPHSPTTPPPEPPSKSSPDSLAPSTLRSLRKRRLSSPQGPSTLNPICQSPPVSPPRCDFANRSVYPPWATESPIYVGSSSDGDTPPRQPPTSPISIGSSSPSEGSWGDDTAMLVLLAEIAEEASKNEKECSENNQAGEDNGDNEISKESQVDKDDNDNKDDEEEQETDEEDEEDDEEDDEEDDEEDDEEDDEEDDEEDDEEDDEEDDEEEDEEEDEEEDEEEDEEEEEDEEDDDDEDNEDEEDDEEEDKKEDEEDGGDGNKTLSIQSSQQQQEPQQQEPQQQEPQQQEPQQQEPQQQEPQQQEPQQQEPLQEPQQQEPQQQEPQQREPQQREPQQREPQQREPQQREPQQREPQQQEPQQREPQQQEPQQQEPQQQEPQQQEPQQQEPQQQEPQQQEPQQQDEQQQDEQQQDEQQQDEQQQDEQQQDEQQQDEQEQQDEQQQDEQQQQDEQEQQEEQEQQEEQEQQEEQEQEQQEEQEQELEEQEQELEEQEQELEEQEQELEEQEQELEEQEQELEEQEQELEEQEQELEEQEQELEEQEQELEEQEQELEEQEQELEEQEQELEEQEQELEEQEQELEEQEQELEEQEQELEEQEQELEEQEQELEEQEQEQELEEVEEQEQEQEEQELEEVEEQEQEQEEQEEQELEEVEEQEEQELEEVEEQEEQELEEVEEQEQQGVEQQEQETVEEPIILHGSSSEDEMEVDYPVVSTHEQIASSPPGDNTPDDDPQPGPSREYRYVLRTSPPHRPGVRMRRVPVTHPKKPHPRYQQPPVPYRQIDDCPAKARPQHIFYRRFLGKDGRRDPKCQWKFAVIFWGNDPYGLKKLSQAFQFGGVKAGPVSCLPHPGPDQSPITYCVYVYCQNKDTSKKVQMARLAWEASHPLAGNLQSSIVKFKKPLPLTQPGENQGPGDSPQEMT

Compound: CC(=O)c1ccc2c(c1)C1C=CCC1C(C(=O)O)N2 (configuration not stated)
- IC50 [1]: 50 µM (inactive)
- IC50 [2]: 10.9 µM (active)
- IC50 [3]: 5.11 µM (active)
- AC50 [4]: 1.45 µM (active)
- IC50 [5]: 78.5 µM (active)
- IC50 [6]: 50.6 µM (active)
- IC50 [7]: 6.61 µM (active)
- AC50 [8]: 277 µM (active)
- IC50 [9]: 0.989 µM (active)
- AC50 [10]: 15 µM (active)
- IC50 [11]: 1.45 µM (active)
- IC50 [12]: 4.87 µM (active)
- IC50 [13]: 5.03 µM (active)
- EC50 [14]: > 100 µM (inactive)
- IC50 [15]: 2.32 µM (active)
- IC50 [16]: 5.37 µM (active)
- IC50 [17]: 4.9 µM (active)
